This is an account of results in patent US20210330611A1, “THERAPY FOR NEUROLOGICAL DISEASES/DISORDERS” (priority 2020, published 2021).

Where a name gives a salt, the structure may show the parent alone. Read-outs that look alike come from different tables or passages of the source.

Series [1] has as its system fibrin-induced microglia activation. Put plainly: Image-based assay of fibrin-induced microglia activation (HTS and dose response). The class given is cell-based, rat. The note with it: for IC50 / inhibition at 10 µM: Rattus norvegicus, Microglia; for inhibition at 10 µM: primary microglia HTS, fibrin stimulation, increased cell size (>800 μm^2) as marker of activation, read-out: Fibrin % inhibition.

Series [2] relates to LPS-induced microglia activation. Put plainly: Image-based assay of LPS-induced microglia activation (HTS and dose response). The series is classed as cell-based, rat. The note with it: Rattus norvegicus, Microglia; for inhibition at 10 µM: primary microglia HTS, LPS stimulation, increased cell size (>800 μm^2) as marker of activation, read-out: LPS % inhibition.
For series [3], the system named is fibrin- and LPS-induced microglia activation. In words: cells. The class given is cell-based, rat. The note with it: for inhibition at 10 µM: Rattus norvegicus, Microglia.
In series [4] the test system is primary rat microglia. The note with it: rat.
Series [5] deals with primary rat microglia. The note with it: rat. This is another data set of the same source.
Series [6] can be described thus: in vitro. The note with it: rat, Cell Toxicity IC50 (uM) [cFib assay].
The nature of series [7]: in vitro. The note with it: rat.
The test system of series [8] is primary rat microglia. In words: Cell toxicity (dead cells, size <150 μm2) in LPS assay. The note with it: read-out: Cell Toxicity IC50 (uM) [LPS assay]; LPS assay.
Another series concerns mouse BMDMs. In words: ROS production (DHE) in fibrin-stimulated mouse BMDMs. The class given is cell-based. The note with it: fibrin 24 h, 5 μM inhibitor, FIG. 6b. The method, then:
Bone marrow—derived macrophage cultures. […]. In brief, bone-marrow cells were isolated from tibia and femur of C57BL/6 mice, Ggt1^+/+ mice or Ggt1^dwg/dwg mice and cultured in RPMI-1640 medium supplemented with 10% FBS, 1% penicillin-streptomycin (Corning), and 10 ng/ml murine M-CSF (14-8983-80, Thermo Fisher Scientific). On days 6-7, adherent BMDMs were harvested by adding PBS with 5 mM EDTA to the plates and used for assays.
Human macrophage cultures. Human peripheral blood mononuclear cells (PBMCs) were purchased from AllCells, LLC (Alameda, Calif.). To differentiate PBMC into monocyte-derived macrophages, 2×10^6 PBMC/mL were plated in RPMI-1640 media supplemented with 10% FBS, 1% penicillin-streptomycin (Corning), and 50 ng/ml human M-CSF (300-25, Peprotech) in tissue-culture treated dishes (Corning). After 24 h, non-adherent cells were removed, and adherent cells were cultivated for 7-8 additional days at 37° C. in 5% CO2 to promote their full differentiation into macrophages. Oxidant detection with DHE. Intracellular concentrations of ROS were measured using dihydroethidium (DHE) as described (9). […] The DHE fluorescence was detected at an excitation/emission wavelength of 518 nm/605 nm using a SpectraMax M5 microplate reader (Molecular Devices) with SoftMax Pro 5.2 software (Phoenix Technologies Ltd.).

The test system of the next series is human macrophages. Put plainly: ROS production (DHE) in fibrin-stimulated human macrophages. The class given is cell-based. The note with it: fibrin 24 h, 5 μM inhibitor, FIG. 6b. The method, then:
Human macrophage cultures. Human peripheral blood mononuclear cells (PBMCs) were purchased from AllCells, LLC (Alameda, Calif.). To differentiate PBMC into monocyte-derived macrophages, 2×10^6 PBMC/mL were plated in RPMI-1640 media supplemented with 10% FBS, 1% penicillin-streptomycin (Corning), and 50 ng/ml human M-CSF (300-25, Peprotech) in tissue-culture treated dishes (Corning). After 24 h, non-adherent cells were removed, and adherent cells were cultivated for 7-8 additional days at 37° C. in 5% CO2 to promote their full differentiation into macrophages. Oxidant detection with DHE. Intracellular concentrations of ROS were measured using dihydroethidium (DHE) as described (9). Cultured BMDMs or human macrophages were incubated in medium containing 5 μM DHE (Invitrogen) for 30 min Cells were plated on 96-well, black μ-clear-bottom microtiter plates (Greiner Bio-One) pre-coated with 25 μg/ml fibrin. For GGT inhibition, BMDMs or human macrophages were pre-incubated with 5 μM acivicin or GGsTop for 1 h, and the cells were plated on fibrin-coated 96-well plates as described above. PBS was used as vehicle control. Cells were then incubated for 24-48 h and fixed with 4% PFA for 10 min. The DHE fluorescence was detected at an excitation/emission wavelength of 518 nm/605 nm using a SpectraMax M5 microplate reader (Molecular Devices) with SoftMax Pro 5.2 software (Phoenix Technologies Ltd.).

The target in the next series is T1, GGT (Mus musculus, UniProt Q60928).
T1 construct: GGT activity in BMDMs left unstimulated or stimulated with fibrin after acivicin or vehicle control treatment; endogenous in cells; host or cells: mouse bone marrow-derived macrophages (BMDMs), fibrin-stimulated
T1 sequence (Q60928 380-568): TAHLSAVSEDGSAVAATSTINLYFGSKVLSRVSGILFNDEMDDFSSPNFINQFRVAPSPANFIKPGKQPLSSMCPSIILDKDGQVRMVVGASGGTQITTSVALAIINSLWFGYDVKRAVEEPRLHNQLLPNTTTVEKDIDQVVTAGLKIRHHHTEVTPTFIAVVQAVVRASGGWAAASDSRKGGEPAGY
T1 sequence (Q60928 1-379): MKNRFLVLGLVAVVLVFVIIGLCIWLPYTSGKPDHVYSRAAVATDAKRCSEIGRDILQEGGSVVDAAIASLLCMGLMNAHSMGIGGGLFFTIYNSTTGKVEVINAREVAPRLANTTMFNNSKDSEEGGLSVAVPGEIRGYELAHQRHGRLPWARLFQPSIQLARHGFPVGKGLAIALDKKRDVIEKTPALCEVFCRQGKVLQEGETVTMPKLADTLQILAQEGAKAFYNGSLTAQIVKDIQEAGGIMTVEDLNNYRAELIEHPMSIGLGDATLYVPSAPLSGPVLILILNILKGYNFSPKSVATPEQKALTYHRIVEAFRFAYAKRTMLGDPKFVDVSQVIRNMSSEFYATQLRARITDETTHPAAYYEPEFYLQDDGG
In words: GGT activity assay in fibrin-stimulated BMDMs (enzymatic kit, ProteoGREEN-gGlu probe). The series is classed as cell-based. The note with it: FIG. 6c, FIG. 13A, B. The method, then: GGT activity assay. GGT activity was measured using the MaxDiscovery gamma-Glutamyl Transferase (GGT) Enzymatic Assay Kit (Bioo Scientific) according to the manufacturer's protocol. […]. For in vivo GGT activity assay, spinal cord tissues from the onset of MOG35-55 EAE or LPS-injected substantia nigra area at 12 h were prepared. Tissues were homogenized in 0.1 M Tris-HCl and centrifuged at 13,000 g for 30 min at 4° C. The supernatant was collected and subsequently assessed for GGT activity. The absorbance at 405 nm was detected with a SpectraMax M5 microplate reader (Molecular Devices) with SoftMax Pro 5.2 software (Phoenix Technologies Ltd.). The GGT activity in IU/1 was calculated following the manufacturer's protocol by multiplying the average increase in absorbance at 405 nm over 10 min GGT activity was also measured using a fluorescent probe, ProteoGREEN-gGlu (Goryo Chemical, Hokkaido, Japan), according to the manufacturer's protocol. Cultured BMDMs were plated on 96-well, black μ-clear-bottom microtiter plates (Greiner Bio-One) pre-coated with 25 μg/ml fibrin. […] The fluorescence intensity (excitation/emission filter pairs of 488 nm/520 nm) was measured using a SpectraMax M5 microplate reader (Molecular Devices) with SoftMax Pro 5.2 software (Phoenix Technologies).

The test system of another series is intracellular GSH. The class given is cell-based, mouse. The method, then:
Real-time imaging of glutathione. The real-time GSH dynamics in living BMDMs was determined with the fluorescent GSH probe, RealThiol RT-AM as described (37). Cells were plated on 2-well chamber slide (Nunc) pre-coated with 25 μg/ml fibrin. Cells were stimulated with fibrin with or without 5 μM acivicin or GGsTop. The GSH synthesis inhibitor, buthionine sulfoximine (BSO, Sigma-Aldrich) was used as positive control for reducing intracellular GSH levels at 100 μM. After 24 h incubation, cells were loaded with 1 μM RT-AM probe and were incubated for 5 min before imaging. The cells were kept at 37° C. during the entire experiment. […] For each independent experiment, laser power and detector settings were set using the control/untreated cells incubated with RT-AM alone as reference. All settings were kept constant throughout the experiment. […] The ratio calculated for each treatment was expressed as percentage from that of the untreated cells (control).

The subject of another series is MOG35-55 EAE. Put plainly: Active MOG35-55 EAE, clinical scores. The class given is in vivo, mouse. The note with it: prophylactic, 5 mg/kg i.p. daily from day 0, FIG. 14B.
For a further series, the system named is renal reperfusion injury. The note with it: cited from earlier work.
[9] abbreviates: 48 h, Table 1, dose response 0.001-20 μM, triplicates, primary rat microglia, 48 h, read-out: Fibrin IC50.
The mark [10] stands for this setting: Table 3, read-out: Fibrin IC50 (uM) (Suppl. Table 7).
Where [11] appears, read: dose response, fibrin-induced microglia activation, read-out: Fibrin IC50.
Setting [12] is: fibrin-induced microglia activation, dose response, read-out: Fibrin IC50 (uM) (Suppl. Table 7).
Where [13] appears, read: 48 h, Table 1, dose response 0.001-20 μM, triplicates, primary rat microglia, 48 h, read-out: LPS IC50.
[14] abbreviates: LPS-induced microglia activation, dose response, read-out: LPS IC50 (uM) (Suppl. Table 7).
The mark [15] stands for this setting: Table 3, read-out: LPS IC50 (uM) (Suppl. Table 7).
Where [16] appears, read: dose response, LPS-induced microglia activation, read-out: LPS IC50.
The mark [17] stands for this setting: HTS of 1907 compounds, quadrant by fibrin and LPS inhibition.
[18] abbreviates: Table 3, read-out: Cherry-picked Hit (Suppl. Table 7).
Where [19] appears, read: HTS hit classification, read-out: Hit.
The mark [20] stands for this setting: quadrant by fibrin and LPS inhibition in HTS of 1907 compounds.
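For Fibrin % cell toxicity in this document: share of dead cells sized under 150 µm2 at 10 µM in fibrin-stimulated microglia HTS.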

Regarding `CC[C@]1(O)C[C@@H]2CN(CCc3c([nH]c4ccccc34)[C@@](C(=O)OC)(c3cc4c(cc3OC)N(C)[C@H]3[C@@](O)(C(=O)OC)[C@H](OC(C)=O)[C@]5(CC)C=CCN6CC[C@]43[C@@H]65)C2)C1` [Vinblastine sulfate, reference compound], the “Fibrin Selectivity” value in series [1] came out at 11. In addition, the “Fibrin Selectivity (LOG10)” value in series [1] is given as 1.05. Moreover, the IC50 is 0.02 µM in series [1] (setting [9]); 0.02 µM in [1] (setting [10]); 1.39 µM in series [1] (Table 7, read-out: fib_IC50); 0.02 µM in series [1] (setting [11]); 0.02 µM in [1] (setting [12]); 0.2 µM in series [2] (setting [13]). For the same molecule, the IC50 is 0.2 µM in [2] (setting [14]); 0.2 µM in series [2] (setting [15]); 0.628 µM in series [2] (Table 7, read-out: LPS_IC50); 0.2 µM in [2] (setting [16]); over 20 µM in the series “in vitro [6]” (Table 3); over 20 µM in “in vitro [6]” (cFib assay). The IC50 in the series “in vitro [7]” and in the series on primary rat microglia [8] was over 20 µM throughout. The inhibition at 10 µM in series [1] was 106%; in [2] (48 h), 108%; in series [3] (setting [18]), over 50%; in [3] (setting [19]) it was over 50%. In addition, the “Quadrant (FIG. 5b)” value in series [3] (setting [17]) is “Q2”; in [3] (Table 1, screen at 10 μM), “Q2”; in series [3] (Table 2, screen at 10 μM) it was “Q2”; in [3] (Table 3, screen at 10 μM) it was “Q2”; in series [3] (setting [20]) it was “Q2”. In series [3] (Table 7, fib = fibrin, LPS, tox = toxicity), the Activity result is reported as “fib/LPS”. The “Fibrin % cell toxicity” value in the series with primary rat microglia [4] was 2%. For the same molecule, the “LPS % cell toxicity” value in the series on primary rat microglia [5] stood at 8%.

Take `O=C(NC(Cc1cc(=O)[nH]c2ccccc12)C(=O)O)c1ccc(Cl)cc1` (centres unmarked) [Rebamipide, reference compound]: the “Fibrin Selectivity” value in [1] worked out at 6. In addition, the “Fibrin Selectivity (LOG10)” value in series [1] came out at 0.80. For the same molecule, the IC50 in series [1] (setting [9]) was determined as 2 µM; in series [1] (setting [10]) it was 2 µM; in [1] (setting [11]) it was 2 µM; in series [1] (setting [12]), 2 µM; in series [2] (setting [13]), 11 µM; in series [2] (setting [14]) it was 11 µM. Moreover, the IC50 was 11 µM in series [2] (setting [15]); 11 µM in series [2] (setting [16]); over 20 µM in “in vitro [6]” (Table 3); over 20 µM in the series “in vitro [6]” (cFib assay); over 20 µM in “in vitro [7]”; over 20 µM with primary rat microglia [8]. Further, the inhibition at 10 µM was 65% in series [1], 72% in [2] (48 h), over 50% in series [3] (setting [18]) and over 50% in [3] (setting [19]). The “Quadrant (FIG. 5b)” value was “Q2” in series [3] (setting [17]); “Q2” in series [3] (Table 1, screen at 10 μM); “Q2” in series [3] (Table 3, screen at 10 μM); “Q2” in series [3] (setting [20]). Besides, the “Fibrin % cell toxicity” value with primary rat microglia [4] was 1%. The “LPS % cell toxicity” value with primary rat microglia [5] is listed as 2%.

As for `COP(=O)(CCC(N)C(=O)O)Oc1cccc(CC(=O)O)c1` (centres unmarked) [GGsTop], the “ROS generation (DHE) in mouse macrophages” value in the series with mouse BMDMs is reported as “inhibited”. Besides, the “ROS generation (DHE) in human macrophages” value with human macrophages is reported as “inhibited”. For the same molecule, the “fibrin-induced GGT activity in BMDMs” value on GGT was “inhibited”. For the same molecule, the “fibrin-induced degradation of glutathione (RealThiol F405/F488)” value in the series with intracellular GSH is on record as “inhibited”. In the series on MOG35-55 EAE, the neurologic signs entry was “reduced”. In the series with renal reperfusion injury, the oxidative stress markers entry is “reduced” and the renal reperfusion injury result was “protected”.
